In paper PMC9510826, “Catalytic promiscuity of O-methyltransferases from Corydalis yanhusuo leading to the structural diversity of benzylisoquinoline alkaloids” (Horticulture Research, 2022) one finds Km data, which are given here for three molecules.

The target in this assay is T1, CyOMT2 (Corydalis yanhusuo, UniProt Z9M545XIG0, L253C).
T1 sequence (Z9M545XIG0 1-349 L253C): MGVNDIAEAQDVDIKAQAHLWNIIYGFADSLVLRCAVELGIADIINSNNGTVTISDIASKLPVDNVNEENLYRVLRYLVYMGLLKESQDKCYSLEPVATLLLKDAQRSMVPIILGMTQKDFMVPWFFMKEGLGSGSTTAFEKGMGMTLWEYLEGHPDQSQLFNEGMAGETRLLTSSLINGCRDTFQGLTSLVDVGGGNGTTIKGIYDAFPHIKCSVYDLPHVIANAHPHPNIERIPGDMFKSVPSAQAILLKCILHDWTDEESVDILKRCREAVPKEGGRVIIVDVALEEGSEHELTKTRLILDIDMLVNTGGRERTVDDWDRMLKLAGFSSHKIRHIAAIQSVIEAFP
Description: UPLC product quantification, Michaelis-Menten fit. Type of assay: biochemical. To be noted: 200 μM SAM, 30 min. From the text:
UPLC product quantification, Michaelis-Menten fit on CyOMT2

For orientation: Km means the concentration of substrate that gives half-maximal velocity.

Consider `Oc1ccc(C[C@@H]2NCCc3cc(O)c(O)cc32)cc1` [compound 1, norcoclaurine], for which the Michaelis-Menten constant (Km) (50 mM phosphate pH 7.5, 45°C) came out at 19.4 ± 3.39 µM.
In the case of `COc1cc2c(cc1O)CC[n+]1cc3c(OC)c(OC)ccc3cc1-2` [compound 14, jatrorrhizine], the Michaelis constant (Km) (50 mM phosphate pH 7.0, 40°C) turned out to be 34.8 ± 3.7 µM.
Same read-out and setting: as for `COc1cc2c(cc1O)[C@@H]1Cc3ccc(OC)c(O)c3CN1CC2` [compound 15, scoulerine], the figure is 12.2 ± 1.72 µM.
